From US5750754A, “Heterocyclic compounds” (Zeneca Limited, priority 1993, dated 1998) come the findings set out here.

The target of experiment [1] is T1, human, citrated, platelet-rich plasma (Homo sapiens, UniProt P05106+P08514).
T1 construct: aggregating human, citrated, platelet-rich plasma; endogenous in cells; host or cells: human platelets in citrated platelet-rich plasma
Description: Test (a): inhibition of ADP stimulated platelet aggregation (Born). As to conditions: ADP induced aggregation of human platelet-rich plasma; for Kb: read-out: Test (a): pA2 value indicating potency of platelet aggregation inhibition (converted). It counts as cell-based. The text has this: (i) aggregating human, citrated, platelet-rich plasma by addition of adenosine diphosphate so as to generate a dose-response curve;
(ii) generating a dose-response curve for ADP stimulated platelet aggregation in the presence of increasing amounts of a test compound (generally in the range 10-^5 M to 10-^10 M); and
(iii) calculating a pA2 value indicating potency of platelet aggregation inhibition for the test compound, averaged over several concentrations, from the calculated 50% response value for ADP aggregation in the presence and absence of the test compound.

Experiment [2] has as its target T2, purified human platelet fibrinogen receptor (GPIIb/IIIa) (Homo sapiens, UniProt P05106+P08514).
T2 construct: is isolated from human platelet lysates; from tissue
Kind of experiment: Test (b): GPIIb/IIIa ELISA, inhibition of biotinylated fibrinogen binding. As to conditions: purified human platelet GPIIb/IIIa, ELISA; read-out: Test (b): pIC50 (-log(IC50)), 50% inhibition of biotinylated fibrinogen binding to GPIIb/IIIa (converted). The procedure: (i) Preparation of human platelet lysates.
Platelet rich plasma (PRP) is harvested by centrifugation (1000 rpm, 15 mins) of whole blood anticoaoulated with acid citrate dextrose (trisodium citrate 85 mM, citric acid 70 mM, d-glucose 110 mM) 1 part to 6 parts blood. Prostacyclin (PGI2, 1 μM) is added to the PRP before centrifugation (2400 pm, 15 mins) and the resulting pellet is resuspended in modified Tyrodes' solution (NaCl 130 mM, KCl 26 mM, NaHCO3 12 mM, NaH2 PO4 0.5 mM, MgCl2 1 mM, CaCl2 20 mM, Glucose 12 mM, HEPES 5 mM) containing bovine serum albumin 3.5 g/L, PGI2 1 μM and hirudin 0.5 U/ml. The platelet suspension is centrifuged (2400 rpm, 15 mins) and the resultant pellet resuspended in 500 μl of lysis buffer (octyl glucoside 50 mM, HEPES 10 mM, NaCl 150 mM, CaCl2 1 mM, MgCl2 1 mM, PMSF 1 mM, NEM 10 mM, leupeptin 0.1 mM), agitated at 4° C. for 15 minutes then centrifuged at 24000 rpm, 15 mins. The supernatant is stored at 4° C. and the pellet re-suspended in 500 μl of lysis buffer. The centrifugation process is repeated a further 3 tlimes, the pooled supernatants being stored at -70° C.
(ii) Receptor purification.
GP Ilb/Ila is isolated from human platelet lysates using a 2 ml peptide (KYGRGDS) coupled CNBr activated Sepharose affinity column. A 1.5 ml volume of platelet lysate is placed on the column and allowed to stand overnight at 4° C. Buffer (30 mls, octyl gluicoside 25 mM, HEPES 10 mM, NaCl 150 mM, CaCl2 1 mM, MgCl2 1 mM, PMSF 1 mM, NEM 10 mM, leupeptin 0.1 mM) is passed through the column and 2 ml fractions are collected throughout. GPIIb/IIIa is eluted with 12 mls of buffer containing HHLGGAKQAGDV (2 mg/ml, pH 7.5), the column is washed using 4 mls buffer and the remaining GPIIb/IIIa eluted using 12 mls buffer containing GRGDSPG (1 mg/ml pH 7.5). The column is finally washed using 20 mls of buffer and can be used for up to three such preparations. Fractions containing FGPIIb/IIIa are identified using gel electrophoresis and immunoblotting, pooled and stored at -70° C.
96 well microtitre plates are coated with 100 μl purified human platelet fibrinogen receptor (GPIIb/IIIa) diluted in coating buffer (Tris-HCl 20 mM, NaCl 150 mM, CaCl2 1 mM, pH 7.4) and left overnight at 4° C. The plates are washed using washing buffer (Tris-HCl 50 mM, NaCl 100 mM, CaCl2 2 mM, pH 7.4) and non-specific binding, blocked by the addition of 200 μl 2% BSA (2 hours, 30° C.). The plates are washed prior to incubation (2 hours, 30° C.) with 100 μl biotinylated fibrinogen ([…]) containing either vehicle or test compound. The plates are washed, incubated with streptavidin (5 μg/ml, 1 hour, ambient temperature), then washed again before the addition of 100 μl biotinylated horse radish peroxidase (0.1 μg/ml, 1 hour, ambient temperature). The plates are then washed and equal volumes of peroxidase substrate (3, 5, tetramethyl benzidine 0.4 g/l) and H2 O2 (0.02%) are mixed together immediately before addition of 150 μl to each well. Colour is allowed to develop for 10-15 mins before optical densities are read at 650 nm.
The concentration of compound required to cause 50% inhibition of biotinylated fibrinogen binding, is calculated and expressed as a pIC50 (-log(IC50)).

The structures appear in SMILES notation. Structures can show the parent of a compound that is named as a salt.

T1 sequence (P08514 32-887 limits assumed): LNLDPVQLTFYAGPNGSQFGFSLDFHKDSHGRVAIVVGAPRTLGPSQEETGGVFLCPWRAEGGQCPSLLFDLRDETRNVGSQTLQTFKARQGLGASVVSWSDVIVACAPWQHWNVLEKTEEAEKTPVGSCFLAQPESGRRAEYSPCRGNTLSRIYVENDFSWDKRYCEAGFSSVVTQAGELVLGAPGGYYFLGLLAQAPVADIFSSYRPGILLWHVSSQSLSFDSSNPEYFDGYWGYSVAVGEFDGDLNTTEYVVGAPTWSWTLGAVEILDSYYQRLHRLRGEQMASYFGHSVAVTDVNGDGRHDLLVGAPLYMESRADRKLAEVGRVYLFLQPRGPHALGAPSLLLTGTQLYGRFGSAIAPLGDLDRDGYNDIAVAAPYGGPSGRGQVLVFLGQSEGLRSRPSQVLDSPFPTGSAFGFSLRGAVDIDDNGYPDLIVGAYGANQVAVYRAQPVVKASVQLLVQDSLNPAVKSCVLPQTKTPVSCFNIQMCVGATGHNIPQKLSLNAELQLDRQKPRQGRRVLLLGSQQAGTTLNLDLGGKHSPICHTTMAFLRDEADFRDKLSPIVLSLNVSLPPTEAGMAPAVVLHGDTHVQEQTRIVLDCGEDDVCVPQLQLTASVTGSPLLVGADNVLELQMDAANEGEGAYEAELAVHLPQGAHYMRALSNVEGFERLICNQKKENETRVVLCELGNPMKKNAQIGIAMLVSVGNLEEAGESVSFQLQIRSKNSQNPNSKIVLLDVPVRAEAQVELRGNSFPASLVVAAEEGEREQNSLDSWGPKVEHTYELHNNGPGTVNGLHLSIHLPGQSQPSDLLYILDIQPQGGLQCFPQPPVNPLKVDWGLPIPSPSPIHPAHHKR
T1 sequence (P08514 891-1039 limits assumed): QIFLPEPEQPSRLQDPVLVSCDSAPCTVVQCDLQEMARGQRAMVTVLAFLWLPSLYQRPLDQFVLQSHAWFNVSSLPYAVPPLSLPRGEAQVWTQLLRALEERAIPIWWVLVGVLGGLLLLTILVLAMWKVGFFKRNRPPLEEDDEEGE
T1 sequence (P05106 27-788): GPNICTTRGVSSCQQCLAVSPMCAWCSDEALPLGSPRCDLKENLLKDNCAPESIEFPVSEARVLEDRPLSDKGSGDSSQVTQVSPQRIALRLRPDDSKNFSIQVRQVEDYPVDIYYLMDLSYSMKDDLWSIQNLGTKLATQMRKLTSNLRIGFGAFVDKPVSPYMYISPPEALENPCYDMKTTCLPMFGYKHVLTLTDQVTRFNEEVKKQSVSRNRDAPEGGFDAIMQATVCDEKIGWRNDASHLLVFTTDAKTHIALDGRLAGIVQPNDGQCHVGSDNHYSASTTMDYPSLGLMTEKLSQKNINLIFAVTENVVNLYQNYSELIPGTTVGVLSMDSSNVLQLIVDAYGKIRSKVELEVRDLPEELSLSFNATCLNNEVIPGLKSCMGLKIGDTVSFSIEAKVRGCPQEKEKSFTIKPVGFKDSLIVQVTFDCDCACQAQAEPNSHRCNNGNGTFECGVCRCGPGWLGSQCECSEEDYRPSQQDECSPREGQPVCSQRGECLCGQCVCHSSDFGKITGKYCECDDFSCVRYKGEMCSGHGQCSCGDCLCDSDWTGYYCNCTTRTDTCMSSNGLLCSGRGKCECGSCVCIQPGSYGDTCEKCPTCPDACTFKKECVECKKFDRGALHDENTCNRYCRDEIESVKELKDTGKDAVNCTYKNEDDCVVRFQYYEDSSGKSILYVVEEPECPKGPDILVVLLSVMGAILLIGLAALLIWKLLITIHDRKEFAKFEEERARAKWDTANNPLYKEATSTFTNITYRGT
T2 sequence (P08514 32-887 limits assumed): as the sequence (P08514 32-887 limits assumed) above
T2 sequence (P08514 891-1039 limits assumed): as the sequence (P08514 891-1039 limits assumed) above
T2 sequence (P05106 27-788): as the sequence (P05106 27-788) above

Turning to `O=C(O)COc1ccc(C(=O)CCN2CCN(c3ccncc3)CC2)cc1` [Example 8, 4-[3-[4-(4-Pyridyl)piperazin-1-yl]propanoyl]phenoxyacetic acid], the Kb in experiment [1] was 316 nM. The IC50 in experiment [2] is 79.4 nM.

Regarding `O=C(O)COC1CCCN(C(=O)CN2CCN(c3ccncc3)CC2)C1` (centres unmarked) [Example 104, 1[2-[4-(4-Pyridyl)piperazin-1yl]acetyl]piperidin-3-yloxyacetic acid], the Kb in experiment [1] is above 100000 nM. Further, the IC50 in experiment [2] is 20000 nM.

On to `O=C(O)[C@H]1CC[C@H](Oc2ccc(N3CCN(c4ccncc4)CC3)cc2)CC1` [Example 231, Trans-4-[4-[4-(4-pyridyl)piperazin-1-yl]phenoxy]cyclohexane carboxylic acid], for which, in experiment [1], the Kb is 200 nM. Moreover, the IC50 in experiment [2] was 31.6 nM.

Turning to `O=C(O)COc1ccc2nc(N3CCN(c4ccncc4)CC3)ccc2c1` [Example 73, 2-[4-(4-Pyridyl)piperazin-1-yl]quinolin-6-yloxyacetic acid], in experiment [1], the Kb was 501 nM. Moreover, the IC50 in experiment [2] was 63.1 nM.

Turning to `CC(C)(C)OC(=O)COC1CCN(C(=O)CN2CCN(c3ccncc3)CC2)CC1` [Example 106], the Kb in experiment [1] is 15800 nM. Also, in experiment [2], the IC50 is 39800 nM.

On to `CCCCS(=O)(=O)NC(CCOc1ccc(N2CCN(c3ccncc3)CC2)cc1)C(=O)OC` (racemic) [Example 218, RS Methyl 2-n-butanesulphonylamino-4-[4-[4-(4-pyridyl)piperazin-1-yl]phenoxy]butyrate], for which the Kb in experiment [1] was 1000 nM.

As for `CC(C)(C)OC(=O)NC(CCOc1ccc(N2CCN(c3ccncc3)CC2)cc1)C(=O)O` (racemic) [Example 212, RS 2-t-Butoxycarbonylamino-4-[4-[4-(4-pyridyl)piperazin-1-yl]phenoxy]butyric acid], the Kb in experiment [1] was 79.4 nM.

As for `C=CCc1cc(N2CCN(c3ccncc3)CC2)ccc1OCCCC(=O)OCC` [Example 205, Ethyl 4-[2-allyl-4-[4-(4-pyridyl)piperazin-1-yl]phenoxy]butyrate], the Kb in experiment [1] was 251 nM.

As to `Cc1cc(C(=O)CN2CCN(c3ccncc3)CC2=O)ccc1OCC(=O)O` [Example 241, [2-Methyl-4-[2-[4-(4-pyridyl)piperazin-2-one-1-yl]acetyl]]phenoxyacetic acid], in experiment [1], the Kb is 6.31 nM.

Turning to `O=C(O)CCN(Cc1ccccc1)C(=O)c1ccc(N2CCN(c3ccncc3)CC2)cc1` [Example 236, 3-[4-[4-(4-Pyridyl)piperazin-1-yl]]-N-benzylbenzamidopropionic acid], the Kb in experiment [1] is 794 nM.

`O=C(O)CCC(=O)Nc1ccc(N2CCN(c3ccncc3)CC2)cc1` [Example 199, 4-Oxo-4-[4-[4-(4-pyridyl)piperazine-1-yl]phenyl]aminobutyric acid]: in experiment [1], the Kb is 501 nM.

Regarding `CCOC(=O)COc1ccc(C(=O)CN2CCN(c3ccncc3)CC2=O)cc1` [Example 215, Ethyl 4-[2-[4-(4-pyridyl)piperazin-2-one-1-yl]acetyl]phenoxyacetate], the Kb in experiment [1] is 126 nM.

With `CCOC(=O)CCCOc1ccc(N2CCN(c3ccncc3)CC2)cc1[N+](=O)[O-]` [Example 217, Ethyl 4-[2-nitro-4-[4-(4-pyridyl)piperazin-1-yl]phenoxy]butyrate], in experiment [1], the Kb is 316 nM.

`CCCc1cc(C(=O)CN2CCN(c3ccncc3)CC2=O)ccc1OCC(=O)O` [Example 240, [2-Propyl-4-[2-[4-(4-pyridyl)piperazin-2-one-1-yl]acetyl]]phenoxyacetic acid]: in experiment [1], the Kb is 25.1 nM.

With `COC(=O)c1ccc(Oc2ccc(N3CCN(c4ccncc4)CC3)cc2)nc1` [Example 232, Methyl 6-[4-[4-(4-pyridyl)piperazin-1-yl]phenoxy]pyridine-3-carbxylate], the Kb in experiment [1] was 31600 nM.

Regarding `CCOC(=O)CNC(=O)COc1ccc(C(=O)CN2CCN(c3ccncc3)CC2=O)cc1` [Example 216, Ethyl N 4-[2-(4-(4-pyridyl)piperazin-2-one-1-yl)acetyl]phenoxyacetylglycinate], the Kb in experiment [1] was 2000 nM.

Turning to `CCCc1cc(N2CCN(c3ccncc3)CC2)ccc1OCCCC(=O)O` [Example 208, 4-[2-n-Propyl4-[4-(4-pyridyl)piperazin-1-yl]phenoxy]butyric acid], the Kb in experiment [1] is 316 nM.

Take `O=C(O)CC(COc1ccc(N2CCN(c3ccncc3)CC2)cc1)c1ccccc1` (racemic) [Example 221, RS 3-Phenyl-4-[4-[4-(4-pyridyl)piperazin-1-yl]phenoxy]-butyric acid]: the Kb in experiment [1] was 158 nM.

Regarding `Cc1cc(N2CCN(c3ccncc3)CC2)ccc1OCCCC(=O)O` [Example 210, 4-[2-Methyl-4-[4-(4-pyridyl)piperazin-1-yl]phenoxy]-butyric acid], the Kb in experiment [1] is 316 nM.

Regarding `CCOC(=O)CCCOc1ccc(N2CCN(c3ccncc3)CC2)cc1C` [Example 209, Ethyl 4-[2-methyl-4-[4-(4-pyridyl)piperazin-1-yl]phenoxy]butyrate], the Kb in experiment [1] was 200 nM.

Take `O=C(O)CN1CCCC(Oc2ccc(N3CCN(c4ccncc4)CC3)cc2)C1` (centres unmarked) [Example 239]: the Kb in experiment [1] is 2510 nM.

Regarding `O=C(O)CCCc1ccc(CN2CCN(c3ccncc3)CC2)cc1` [Example 180, 4-[4-[4-(4-Pyridyl)piperazin-1yl]methylphenyl]butyric acid, dihydrochloride], the Kb in experiment [1] is 3160 nM.

With `O=C(O)CC(COc1ccc(N2CCN(c3ccncc3)CC2)cc1)Cc1ccccc1` (racemic) [Example 220, RS 3-Benzyl-4-[4-[4-(4-pyridyl)piperazin-1-yl]phenoxy]-butyric acid], the Kb in experiment [1] was 3160 nM.

On to `O=C(O)CCCCCOc1ccc(Nc2ccncc2)cc1` [Example 188, 6-[4-(4-Pridylamino)phenoxy]hexanoic acid hydrochloride], for which the “Test (a): pA2 value indicating potency of platelet aggregation inhibition” value in experiment [1] is on record as 6.0.

As to `O=C(O)CCCOc1ccc(N2CCN(c3ccncc3)CC2=O)cc1` [Example 243, 4-[4-[4-(4-Pyridyl)piperazin-2-one-1-yl]phenoxy]butyric acid], in experiment [1], the Kb is 10 nM.

As for `O=C(O)CN1CCC(Oc2ccc(N3CCN(c4ccncc4)CC3)cc2)CC1` [Example 238, 4-[4-[4-(Pyridyl)piperazin-1-yl]phenoxy]piperidineacetic acid], the Kb in experiment [1] was 1260 nM.

Take `CN(C)c1ccncc1CCCOc1ccc(C[C@H](NC(=O)OCc2ccccc2)C(=O)O)cc1` [Example 225]: in experiment [1], the Kb was 158 nM.

As to `CCOC(=O)CCCCCOc1ccc(Nc2ccncc2)cc1` [Example 187, Ethyl 6-[4-(4-pyridylamino)phenoxy]hexanoate], in experiment [1], the Kb is 15800 nM.

In the case of `CCCCS(=O)(=O)NC(CCOc1ccc(N2CCN(c3ccncc3)CC2)cc1)C(=O)O` (racemic) [Example 219, RS 2-n-Butanesulphonylamino-4-[4-[4-(4-pyridyl)piperazin-1-yl]phenoxy]butyricacid], the Kb in experiment [1] is 31.6 nM.

On to `CCOC(=O)CCCOc1ccc(N2CCN(c3ccncc3)CC2=O)cc1` [Example 242, Ethyl 4-[4-[4-(4-pyridyl)piperazin-2-one-1yl]phenoxy]butyrate], for which, in experiment [1], the Kb was 316 nM.
